# Reference: paper PMC8137933, “Using molecular dynamics simulations to prioritize and understand AI-generated cell penetrating peptides” (Scientific Reports, 2021)
# Tested on: HeLa cells
# Type: cell-based
# Method: We first evaluated cell toxicity of Pep-MD. Specifically, we quantified HeLa cell viability using CellTiter-Glo® Luminescent Cell Viability Assay kit in the presence of a series of concentration of Pep-MD, 0.1, 0.5 and 2 µM, in serum-free cell culture media. The kit can visualize the number of viable cells as chemiluminescence intensity based on quantitation of the ATP present, an indicator of metabolically active cells. As a positive control, we also evaluated TAT (GRKKRRQRRR in amino acid sequence).
# The HeLa cell line was purchased from RIKEN cell bank (Tsukuba, Japan). HeLa cells were cultured in Dulbecco’s Eagle’s medium (DMEM, FUJIFILM Wako Pure Chemical, Japan) supplemented with inactivated 10% fetal bovine serum (FBS, Biosera, France) and 1% penicillin–streptomycin solution (FUJIFILM Wako Pure Chemical).
# HeLa cells were seeded at a density of 8000 cells per well in 96 well plate (AGC Techno Glass, Shizuoka, Japan). […] Cell viability of each well was quantified with CellTiter-Glo® Luminescent Cell Viability Assay kit (Promega, Madison, WI, USA) and EnSpire™ microplate reader (PerkinElmer, Waltham, MA, USA) according to manufacturer’s instructions. The cell viability was calculated as the chemiluminescence intensity ratio of samples to that of […] without peptide.
row,Sequence,Cell toxicity (HeLa cell viability) at 2.0 µM
1,GRKKRRQRRR [TAT],significant cell toxicity
2,YRGWHCRGITKNGIIFDIKW [Pep-MD],little toxicity
